Assay results: patent US9573887B2, “Naphthalene derivative” (Daito Chemix Corporation, priority 2010, dated 2017)
Structures can show the parent of a compound that is named as a salt.

Target: T1, Mouse VCP (Mus musculus, UniProt Q01853)
T1 construct: histidine tag (N); made in house; host or cells: Sf-9 insect cells (baculovirus vector pVL1392)
Assay: ATPase activity of purified His-tagged VCP, [γ-32P]ATP, liberated phosphate by liquid scintillation
Assay type: biochemical
Conditions: compounds of Examples; ATPase inhibitory activity; 500 ng VCP, 100 μM ATP, 37° C., 10 minutes
Outline: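 Liberated 32P-phosphate, extracted as a molybdate complex and counted by liquid scintillation, was the readout. Reactions used 500 ng Sf-9-expressed, Ni-purified His-VCP (mouse), 100 μM [γ-32P]ATP and varied test concentrations for 10 min at 37° C in HEPES pH 7.4 buffer with Mg2+ and DTT. IC50 derived by curve fitting.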

T1 sequence (Q01853 whole entry): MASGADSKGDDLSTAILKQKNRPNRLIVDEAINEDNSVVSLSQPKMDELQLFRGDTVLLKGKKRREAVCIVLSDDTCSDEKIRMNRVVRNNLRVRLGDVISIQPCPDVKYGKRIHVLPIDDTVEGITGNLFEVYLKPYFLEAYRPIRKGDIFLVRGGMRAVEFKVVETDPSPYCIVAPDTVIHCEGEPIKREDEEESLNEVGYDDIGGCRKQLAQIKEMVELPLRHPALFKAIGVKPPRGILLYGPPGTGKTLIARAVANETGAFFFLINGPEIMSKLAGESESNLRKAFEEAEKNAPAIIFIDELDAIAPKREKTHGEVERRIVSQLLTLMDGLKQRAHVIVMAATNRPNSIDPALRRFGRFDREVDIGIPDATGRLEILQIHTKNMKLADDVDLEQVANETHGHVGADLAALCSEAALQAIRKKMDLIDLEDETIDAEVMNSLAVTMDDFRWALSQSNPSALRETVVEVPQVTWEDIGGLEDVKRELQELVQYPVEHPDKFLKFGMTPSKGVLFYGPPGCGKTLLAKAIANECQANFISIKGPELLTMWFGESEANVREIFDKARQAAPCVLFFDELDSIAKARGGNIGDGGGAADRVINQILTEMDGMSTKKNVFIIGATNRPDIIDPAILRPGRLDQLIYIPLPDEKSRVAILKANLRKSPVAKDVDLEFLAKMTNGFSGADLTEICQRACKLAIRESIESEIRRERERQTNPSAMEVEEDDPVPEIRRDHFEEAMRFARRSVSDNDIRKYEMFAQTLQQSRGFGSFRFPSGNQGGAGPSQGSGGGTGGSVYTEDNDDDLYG

SMILES | IC50
Nc1c(/N=N/c2ccc(C(=O)Nc3ccccc3)cc2)cc(S(=O)(=O)O)c2ccccc12 [Example 129, 4-amino-3-(4-phenylcarbamoylphenylazo)naphthalene-1-sulfonic acid sodium salt] | 1900 nM
Nc1c(/N=N/c2cccc(C(=O)c3ccccc3)c2)cc(S(=O)(=O)O)c2ccccc12 [Example 130, 4-amino-3-(3-benzoylphenylazo)naphthalene-1-sulfonic acid sodium salt] | 260 nM
Nc1c(/N=N/c2ccc(C(=O)c3ccccc3)cc2)cc(S(=O)(=O)O)c2ccccc12 [Example 131, 4-amino-3-(4-benzoylphenylazo)naphthalene-1-sulfonic acid sodium salt] | 242 nM
Nc1c(/N=N/c2ccc(OCc3ccncc3)cc2)cc(S(=O)(=O)O)c2ccccc12 [Example 132, 4-amino-3-[4-(pyridine-4-ylmethoxy)phenylazo]naphthalene-1-sulfonic acid sodium salt] | 135 nM
CSc1ccccc1/N=N/c1cc(S(=O)(=O)O)c2ccccc2c1N [Example 133, 4-amino-3-(2-methylsulfanylphenylazo)naphthalene-1-sulfonic acid sodium salt] | 518 nM
CSc1ccc(/N=N/c2cc(S(=O)(=O)O)c3ccccc3c2N)cc1 [Example 134, 4-amino-3-(4-methylsulfanylphenylazo)naphthalene-1-sulfonic acid sodium salt] | 327 nM
Nc1c(/N=N/c2ccc(OCc3cccnc3)cc2)cc(S(=O)(=O)O)c2ccccc12 [Example 135, 4-amino-3-[4-(pyridine-3-ylmethoxy)phenylazo]naphthalene-1-sulfonic acid sodium salt] | 716 nM
Nc1c(/N=N/c2ccc(OCc3ccccn3)cc2)cc(S(=O)(=O)O)c2ccccc12 [Example 136, 4-amino-3-[4-(pyridine-2-ylmethoxy)phenylazo]naphthalene-1-sulfonic acid sodium salt] | 601 nM
Nc1c(/N=N/c2cccc(OCc3ccccn3)c2)cc(S(=O)(=O)O)c2ccccc12 [Example 137, 4-amino-3-[3-(pyridine-2-ylmethoxy)phenylazo]naphthalene-1-sulfonic acid sodium salt] | 610 nM
Nc1c(/N=N/c2cccc(OCc3cccnc3)c2)cc(S(=O)(=O)O)c2ccccc12 [Example 138, 4-amino-3-[3-(pyridine-3-ylmethoxy)phenylazo]naphthalene-1-sulfonic acid sodium salt] | 516 nM
CCCCOc1c(OCC)cc(C=O)cc1-c1ccc(/N=N/c2cc(S(=O)(=O)O)c3ccccc3c2N)cn1 [Example 148, 4-amino-3-[6-(2-butoxy-3-ethoxy-5-formylphenyl)pyridine-3-ylazo]naphthalene-1-sulfonic acid sodium salt] | 1560 nM

Next, values leading:

IC50 | SMILES
600 nM | Nc1c(/N=N/c2cccc(OCc3ccncc3)c2)cc(S(=O)(=O)O)c2ccccc12 [Example 139, 4-amino-3-[3-(pyridine-4-ylmethoxy)phenylazo]naphthalene-1-sulfonic acid sodium salt]
596 nM | Nc1c(/N=N/c2ccccc2OCc2ccccn2)cc(S(=O)(=O)O)c2ccccc12 [Example 140, 4-amino-3-[2-(pyridine-2-ylmethoxy)phenylazo]naphthalene-1-sulfonic acid sodium salt]
747 nM | Nc1c(/N=N/c2ccccc2OCc2ccncc2)cc(S(=O)(=O)O)c2ccccc12 [Example 141, 4-amino-3-[2-(pyridine-4-ylmethoxy)phenylazo]naphthalene-1-sulfonic acid sodium salt]
243 nM | Nc1c(/N=N/c2ccccc2OCc2cccnc2)cc(S(=O)(=O)O)c2ccccc12 [Example 142, 4-amino-3-[2-(pyridine-3-ylmethoxy)phenylazo]naphthalene-1-sulfonic acid sodium salt]
1220 nM | N#C/C(=C\c1ccc(/N=N/c2cc(S(=O)(=O)O)c3ccccc3c2N)cc1)c1ccccc1 [Example 143, 4-amino-3-[4-(2-cyano-2-phenylvinyl)phenylazo]naphthalene-1-sulfonic acid sodium salt]
199 nM | Cc1cc(F)ccc1-c1ccc(/N=N/c2cc(S(=O)(=O)O)c3ccccc3c2N)cc1F [Example 144, 4-amino-3-(2,4′-difluoro-2′-methyl-diphenyl-4-ylazo)naphthalene-1-sulfonic acid sodium salt]
295 nM | Nc1c(/N=N/c2cnc3ccccc3c2)cc(S(=O)(=O)O)c2ccccc12 [Example 145, 4-amino-3-(quinoline-3-ylazo)naphthalene-1-sulfonic acid sodium salt]
1290 nM | COC(=O)c1sccc1/N=N/c1cc(S(=O)(=O)O)c2ccccc2c1N [Example 146, methyl 3-(1-amino-4-sulfonaphthalene-2-ylazo)thiophene-2-carboxylate sodium salt]
502 nM | Nc1c(/N=N/c2ccc3ncccc3c2)cc(S(=O)(=O)O)c2ccccc12 [Example 147, 4-amino-3-(quinoline-6-ylazo)naphthalene-1-sulfonic acid sodium salt]
182 nM | CCOc1c(C=O)cc(C)cc1-c1ccc(/N=N/c2cc(S(=O)(=O)O)c3ccccc3c2N)cn1 [Example 149, 4-amino-3-[6-(2-ethoxy-3-formyl-5-methylphenyl)pyridine-3-ylazo]naphthalene-1-sulfonic acid sodium salt]
